These results are taken from patent US7491707B1, “Synthetic lipid-a-analogs and uses thereof” (Biomira, Inc., priority 1999, dated 2009).

The conditions of series [1]: literature bioassays; cited from earlier work.
The next series has as its system Interferon-gamma (IFN-γ). The series can be described thus: Interferon-gamma (IFN-γ) production in cell culture supernatants by ELISA, lymphocytes of mice immunized with adjuvanted MUC1 liposomal vaccine. The series is classed as in vivo, C57-Black mice. The method, then:
(§1) Typically, the liposomal formulation was composed of 400 μg of MUC1-based lipopeptide BP1-148, H2N-[…](Pal)G-OH, 200 μg of Lipid-A analog, 6.94 mg of cholesterol, 1.46 mg of dimyristoyl phosphatidylglycerol ([…]) and 11.62 mg of dipalmitoyl phosphatidylcholine (DPPC) per 1 ml of saline (0.9% NaCl solution).
(§2) The liposomal constructs were formulated by first dissolving the phospholipids, cholesterol and Lipid A analog in tert-butanol at about 53° C. Lipopeptide and water (5%, v/v) were then added to the tert-butanol solution. The resulting clear 95% tert-butanol solution was injected into about 4 volumes of rapidly stirred water at about 50° C., using a glass syringe with an 18-gauge needle. The small unilamellar vesicles (SUV) formed in this process were cooled, sterilized by filtration through a 0.22 μm membrane filter, filled into vials and lyophilized. The dry powder was re-hydrated with sterile saline before injection, resulting in the formation of multilamellar large vesicles (MLV). The liposomes formed are used to immunize mice.
(§3) Groups of C57-Black mice were immunized subcutaneously with the liposomal vaccine containing 40 μg of MUC1-based lipopeptide BP1-148 (FIG. 34), which has the peptide sequence of H2N-[…](Pal) G-OH, and 20 μg of Lipid-A analog per dose. Nine days after vaccine injection mice were sacrificed and lymphocytes were taken from the draining lymph nodes (local response) or from the spleens (systemic response) to determine the immune response in each group. The lymphocytes taken from immunized mice were incubated in in vitro cultures in the presence of MUC1-based boosting antigen BP1-151, which has the peptide sequence H2N-[…]-OH.
Interferon-gamma (IFN-γ) levels were determined in the cell culture supernatants using enzyme-linked immunoabsorbent assay (ELISA). 96-Well plates were coated with 50 μl of catcher Mabs in 50 μl of R4.6AZ at 37° C. for 30 min. The plates were then washed and incubated with test samples for 45 min. After two washes the second biotinylated antibody, XMG1.2 was added. After washing, peroxidase-conjugated streptavidin was added and incubated again for 30 min. Finally, 100 μl of horseradish peroxidase (HRPO) substrate solution was added. The optical density was measured with a Thermomax ELISA reader at 405 nm wavelength in kinetic mode for 10 min. The interferon-gamma (IFN-γ) levels corresponding to various Lipid-A analogs are shown in Table 1-Table 3 and FIG. 31-FIG. 33.

The test system of the next series is T-cell. The series can be described thus: T-cell proliferation (3H thymidine incorporation) of lymph node lymphocytes from mice immunized with MUC1-based liposomal vaccine adjuvanted with Lipid-A analog. The series is classed as in vivo, C57-Black mice. The method, then: as §1, §2, §3
T-cell proliferation was evaluated using a standard ^3H thymidine incorporation assay. Briefly, nylon wool passed inguinal lymph node lymphocytes from each mouse were added to a culture containing 106 native mitomycin C treated syngeneic splenocytes, which serves as antigen presenting cells (APCs). To each well 20 μg of MUC1-based boosting peptide BP1-151, H2N-[…]-OH (single letter amino acid code, Table 8), was added for positive control; and cultures containing no antigen or peptide BP1-72, which has the peptide sequence H2N-[…]-OH, were used as negative control. The culture was incubated for 72 h in a total volume of 250 μl well, followed by adding 1 μCi of ^3H-thymidine in a volume of 50 μl. The plates were incubated for an additional 18-20 h. Cells were harvested and [^3H]dTh incorporation was measured by liquid scintillation counter. T-cell proliferation results corresponding to various liposomal vaccines adjuvanted, with different Lipid-A analogs are summarized in Tables 1-Table 3 and FIG. 31-FIG. 33.

A short description of series [2]: Solubility of Lipid-A analogs for incorporation into liposomes. The series is classed as physicochemical. The settings on record: in words; given as cause of poor incorporation into liposomes.
Setting [3] is: in words, liposomal vaccine formulations in mice, FIG. 31-FIG. 33.

monophosphoryl Lipid-A: in series [1], the “potency on a molar basis in eliciting toxic and pyrogenic responses, compared to diphosphoryl Lipid-A” value is 1000 times less potent.

For the compound `CCCCCCCCCCCCCC(=O)N[C@@H](CC(=O)N[C@H]1[C@H](OC[C@H]2OC(O)[C@H](NC(=O)C[C@@H](CCCCCCCCCCC)OC(=O)CCCCCCCCCCCCC)[C@@H](OC(=O)C[C@H](O)CCCCCCCCCCC)[C@@H]2O)O[C@H](CO)[C@@H](OP(=O)(O)O)[C@@H]1OC(=O)C[C@@H](CCCCCCCCCCC)OC(=O)CCCCCCCCCCCCC)C(=O)NCCCCCCCCC` (stereo partly drawn) [Compound 77, 2-Deoxy-6-O-{2-deoxy-2-[(3S)-3-tetradecanamido-4-nonylamino-4-oxo-butanamido]-4-O-phosphono-3-O-[(3R)-3-tetradecanoyloxytetradecanoyl]-β-D-glucopyranosyl}-3-O-[(3R)-3-hydroxytetradecanoyl]-2-[(3R)-3-tetradecanoyloxytetradecanamido]-α/β-D-glucopyranose], the “Interferon-gamma (IFN-γ, pg/ml)” value with Interferon-gamma (IFN-γ) (Table 2, second test group, s.c. liposomal vaccine 40 μg BP1-148 + 20 μg Lipid-A analog per dose, nine days after injection) is 0 pg/mL. In the series on Interferon-gamma (IFN-γ) (setting [3]), the interferon-gamma production result was “inactive”. Moreover, the “T-cell-Proliferation (CPM)” value in the series on T-cell (Table 2, second test group, s.c. liposomal vaccine 40 μg BP1-148 + 20 μg Lipid-A analog per dose, nine days after injection, boosting antigen BP1-151) turned out to be 2565 CPM. Moreover, the T-cell blastogenesis entry in the series on T-cell (setting [3]) was “inactive”. Further, the solubility result in series [2] is recorded as “poor solubility”.
